Test results published in ChEMBL document CHEMBL1123765, “Psychotropic agents: synthesis and antipsychotic activity of substituted beta-carbolines” (J Med Chem, 1987).

Key:
[1] = target: D(2) dopamine receptor (Rattus norvegicus) (UniProt P61169); assay: In vitro binding affinity for Dopamine receptor D2 of rat nucleus accumbens labeled with [3H]spiperone was determined at 10 uM concentration
[2] = target: D(2) dopamine receptor (Rattus norvegicus) (UniProt P61169); assay: In vitro binding affinity for Dopamine receptor D2 of rat nucleus accumbens labeled with [3H]spiperone was determined at 1 uM concentration
Rattus norvegicus [3] = assay: Antipsychotic activity was assessed by ability to block response of rats trained to avoid an electrical shock (inhibition of self-jump and/or discrete trial conditioned avoidance response(CAR) upon ip administration; format: functional
Rattus norvegicus [4] = assay: Antipsychotic activity was assessed by ability to block response of rats trained to avoid an electrical shock (inhibition of self-jump and/or discrete trial conditioned avoidance response(CAR) upon ip administration; value ranges from 15-33; format: functional
[5] = target: D(2) dopamine receptor (Rattus norvegicus) (UniProt P61169); assay: In vitro binding affinity for Dopamine receptor D2 of rat striatum labeled with [3H]-spiperone was determined at 10 uM concentration; format: tissue-based
[6] = target: D(2) dopamine receptor (Rattus norvegicus) (UniProt P61169); assay: In vitro binding affinity for Dopamine receptor D2 of rat striatum labeled with [3H]spiperone was determined at 10 uM concentration; format: tissue-based
Rattus norvegicus [7] = assay: Antipsychotic activity was assessed by ability to block response of rats trained to avoid an electrical shock (inhibition of self-jump and/or discrete trial conditioned avoidance response(CAR) upon ip administration.; format: functional
Rattus norvegicus [8] = assay: Antipsychotic activity was assessed by ability to block response of rats trained to avoid an electrical shock (inhibition of self-jump and/or discrete trial conditioned avoidance response(CAR) upon po administration; value ranges from 0.1-3.5; format: functional
Rattus norvegicus [9] = assay: Antipsychotic activity was assessed by ability to block response of rats trained to avoid an electrical shock (inhibition of self-jump and/or discrete trial conditioned avoidance response(CAR) upon ip administration; value ranges from 0.12-0.33; format: functional
D(2) dopamine receptor [10] = target: T1, D(2) dopamine receptor (Rattus norvegicus, UniProt P61169); assay: In vitro binding affinity for Dopamine receptor D2 of rat striatum labeled with [3H]-spiperone was determined
T1 sequence (P61169 whole entry): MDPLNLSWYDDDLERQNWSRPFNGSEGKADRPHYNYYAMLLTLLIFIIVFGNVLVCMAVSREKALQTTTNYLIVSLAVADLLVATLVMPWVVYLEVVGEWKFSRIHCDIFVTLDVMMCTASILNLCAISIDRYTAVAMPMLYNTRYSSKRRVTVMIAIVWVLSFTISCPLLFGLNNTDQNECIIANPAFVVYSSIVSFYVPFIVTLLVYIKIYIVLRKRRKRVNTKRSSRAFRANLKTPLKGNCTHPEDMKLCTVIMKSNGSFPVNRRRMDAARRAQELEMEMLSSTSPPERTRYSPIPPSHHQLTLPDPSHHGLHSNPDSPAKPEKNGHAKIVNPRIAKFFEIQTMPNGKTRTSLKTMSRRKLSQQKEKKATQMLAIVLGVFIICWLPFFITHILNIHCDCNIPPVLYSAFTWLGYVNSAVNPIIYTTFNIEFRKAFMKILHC

Rattus norvegicus [11] = assay: Antipsychotic activity was assessed by ability to block response of rats trained to avoid an electrical shock (inhibition of self-jump and/or discrete trial conditioned avoidance response(CAR) upon ip administration; value ranges from 19-78; format: functional
D(2) dopamine receptor [12] = target: T1, D(2) dopamine receptor; assay: In vitro binding affinity for Dopamine receptor D2 of rat nucleus accumbens labeled with [3H]spiperone was determined at 10 uM concentration.
Rattus norvegicus [13] = assay: Antipsychotic activity was assessed by ability to block response of rats trained to avoid an electrical shock (inhibition of self-jump and/or discrete trial conditioned avoidance response(CAR) upon ip administration; value ranges from 7-18; format: functional
Rattus norvegicus [14] = assay: Antipsychotic activity was assessed by ability to block response of rats trained to avoid an electrical shock (inhibition of self-jump and/or discrete trial conditioned avoidance response (CAR) upon ip administration.* >40 indicates insignificant aactivity; format: functional
Rattus norvegicus [15] = assay: Antipsychotic activity was assessed by ability to block response of rats trained to avoid an electrical shock (inhibition of self-jump and/or discrete trial conditioned avoidance response(CAR) upon ip administration; value ranges from 30-62; format: functional
Rattus norvegicus [16] = assay: Antipsychotic activity was assessed by ability to block response of rats trained to avoid an electrical shock (inhibition of self-jump and/or discrete trial conditioned avoidance response(CAR) upon po administration; value ranges from 2-3; format: functional
Rattus norvegicus [17] = assay: Antipsychotic activity was assessed by ability to block response of rats trained to avoid an electrical shock (inhibition of self-jump and/or discrete trial conditioned avoidance response(CAR) upon ip administration; value ranges from 2-7; format: functional
[18] = target: D(2) dopamine receptor (Rattus norvegicus) (UniProt P61169); assay: In vitro binding affinity for Dopamine receptor D2 of rat nucleus accumbens labeled with [3H]-spiperone was determined at 1 uM concentration
Rattus norvegicus [19] = assay: Antipsychotic activity was assessed by ability to block response of rats trained to avoid an electrical shock (inhibition of self-jump and/or discrete trial conditioned avoidance response(CAR) upon po administration; value ranges from 30-33; format: functional
Rattus norvegicus [20] = assay: Antipsychotic activity was assessed by ability to block response of rats trained to avoid an electrical shock (inhibition of self-jump and/or discrete trial conditioned avoidance response(CAR) upon ip administration; value ranges from 9-24; format: functional
Rattus norvegicus [21] = assay: Antipsychotic activity was assessed by ability to block response of rats trained to avoid an electrical shock (inhibition of self-jump and/or discrete trial conditioned avoidance response(CAR) upon ip administration; value ranges from 33-37; format: functional
Rattus norvegicus [22] = assay: Antipsychotic activity was assessed by ability to block response of rats trained to avoid an electrical shock (inhibition of self-jump and/or discrete trial conditioned avoidance response(CAR) upon po administration; value ranges from 8-17; format: functional
Rattus norvegicus [23] = assay: Antipsychotic activity was assessed by ability to block response of rats trained to avoid an electrical shock (inhibition of self-jump and/or discrete trial conditioned avoidance response(CAR) upon ip administration; value ranges from 6.5-7.5; format: functional
Rattus norvegicus [24] = assay: Antipsychotic activity was assessed by ability to block response of rats trained to avoid an electrical shock (inhibition of self-jump and/or discrete trial conditioned avoidance response(CAR) upon ip administration; value ranges from 14-49; format: functional
Rattus norvegicus [25] = assay: Antipsychotic activity was assessed by ability to block response of rats trained to avoid an electrical shock (inhibition of self-jump and/or discrete trial conditioned avoidance response(CAR) upon ip administration; value ranges from 15-22; format: functional

D(2) dopamine receptor (Rattus norvegicus), sequence (P61169 whole entry): as above

inhibition [2] [%]	Compound	AB50 (Rattus norvegicus [3]) [mg/kg]	further results
15	COc1ccc2[nH]c3c(c2c1)CCN(Cc1c(OC)cccc1OC)C3		inhibition [1]: 27%
	Fc1ccc2[nH]c3c(c2c1)CCN(CCc1ccc2ccccc2n1)C3	40	
	Fc1ccc(C(CCCN2CCc3c([nH]c4ccccc34)C2)c2ccc(F)cc2)cc1	>40	
51	Clc1ccc2[nH]c3c(c2c1)CCN(CCCCc1ccncc1)C3	>40	
	c1ccc(Cn2c3c(c4ccccc42)CCN(CCc2ccccn2)C3)cc1	>40	
	Clc1cccc(N2CCN(CCCN3CCc4c([nH]c5ccccc45)C3)CC2)c1	>40	
	c1cncc(CCCN2CCc3c([nH]c4ccccc34)C2)c1		AB50 (Rattus norvegicus [4]): 21 mg/kg
38	CC1CN(CCCN2CCc3c([nH]c4ccccc34)C2)CC(C)N1 (configuration not stated)	>40	
7	c1ccc2nc(CN3CCc4c([nH]c5ccccc45)C3)ccc2c1	48	inhibition [5]: 7%
75	Fc1ccc2[nH]c3c(c2c1)CCN(CCc1ccccn1)C3	40	
13	c1ccc2c3c([nH]c2c1)CN(Cc1ccncc1)CC3		inhibition [6]: 27%
7	c1ccc2c(N3CCc4c([nH]c5ccccc45)C3)ccnc2c1	>40	
	c1ccc2c3c([nH]c2c1)CN(CCCc1ccncc1)CC3		AB50 (Rattus norvegicus [7]): 40 mg/kg
7	c1coc(CN2CCc3c([nH]c4ccccc34)C2)c1		
	O=C(CCCN1CCC(O)(c2ccc(Cl)cc2)CC1)c1ccc(F)cc1 [HALOPERIDOL]		AB50 (Rattus norvegicus [8]): 0.2 mg/kg; AB50 (Rattus norvegicus [9]): 0.2 mg/kg
	c1ccc2nc(CCCCN3CCc4c([nH]c5ccccc45)C3)ccc2c1		Ki (D(2) dopamine receptor [10]): 139 nM; AB50 (Rattus norvegicus [11]): 31 mg/kg
6	O=C(c1nccc2ccccc12)N1CCc2c([nH]c3ccccc23)C1	>40	
	Fc1ccc2[nH]c3c(c2c1)CCN(CCCCc1ccncc1)C3	>40	Ki (D(2) dopamine receptor [12]): 720 nM
	c1ccc2nc(CCN3CCc4c([nH]c5ccccc45)C3)ccc2c1		Ki (D(2) dopamine receptor [10]): 211 nM; AB50 (Rattus norvegicus [13]): 10 mg/kg
	Fc1ccc(C(c2ccc(F)cc2)N2CCN(CCCN3CCc4c([nH]c5ccccc45)C3)CC2)cc1	>40	
	Clc1cccc(N2CCN(CCCn3c4c(c5ccccc53)CCN(CCCc3cccnc3)C4)CC2)c1	>40	
	c1ccc2c(c1)c1c(n2CCCN2CCCCC2)CN(CCCc2ccncc2)CC1	>40	inhibition [1]: 22%
	Fc1ccc2[nH]c3c(c2c1)CCN(CCCCc1ccnc2ccccc12)C3	>40	
	Clc1ccc2[nH]c3c(c2c1)CCN(CCc1ccncc1)C3		AB50 (Rattus norvegicus [14]): >40 mg/kg

inhibition [2] [%]	Compound	AB50 (Rattus norvegicus [3]) [mg/kg]	further results
	Clc1ccc2[nH]c3c(c2c1)CCN(CCc1ccc2ccccc2n1)C3	>40	
	C[C@@H]1CN(CCCn2c3ccccc3c3ccccc32)C[C@H](C)N1 [RIMCAZOLE]		AB50 (Rattus norvegicus [15]): 39 mg/kg
	CN(C)CCCN1c2ccccc2Sc2ccc(Cl)cc21 [CHLORPROMAZINE]		AB50 (Rattus norvegicus [16]): 3 mg/kg; AB50 (Rattus norvegicus [17]): 4 mg/kg
	CN(C)CCCn1c2c(c3ccccc31)CCN(CCCc1cccnc1)C2	>40	inhibition [1]: 17%
	COc1ccc2[nH]c3c(c2c1)CCN(CCc1ccncc1)C3		inhibition [18]: 53%
	c1ccc2c3c([nH]c2c1)CN(CCCCc1ccncc1)CC3		Ki (D(2) dopamine receptor [10]): 525 nM; AB50 (Rattus norvegicus [19]): 31 mg/kg; AB50 (Rattus norvegicus [20]): 14 mg/kg
	c1cnc(N2CCN(CCCN3CCc4c([nH]c5ccccc45)C3)CC2)nc1		AB50 (Rattus norvegicus [21]): 35 mg/kg
	c1ccc(CCN2CCc3c(n(CCCN4CCCCC4)c4ccccc34)C2)nc1	>40	inhibition [1]: 9%
	FC(F)(F)c1cccc(N2CCN(CCCN3CCc4c([nH]c5ccccc45)C3)CC2)c1	>40	
26	c1ccc2c(CN3CCc4c([nH]c5ccccc45)C3)ccnc2c1	>40	
	CN1CCN(C2=Nc3cc(Cl)ccc3Nc3ccccc32)CC1 [CLOZAPINE]		AB50 (Rattus norvegicus [22]): 11 mg/kg; AB50 (Rattus norvegicus [23]): 7 mg/kg
0	CN(C)CCCn1c2c(c3ccccc31)CCN(CCCc1ccncc1)C2	>40	
15	COc1cccc(OC)c1CN1CCc2c([nH]c3ccccc23)C1		inhibition [1]: 27%
	O=C(CCCn1c2c(c3ccccc31)CCN(CCc1ccccn1)C2)c1ccc(F)cc1	>40	
8	COc1ccc2[nH]c3c(c2c1)CCN(CCc1ccccn1)C3		
	Clc1cccc(N2CCN(CCCn3c4c(c5ccccc53)CCN(CCc3ccccn3)C4)CC2)c1	>40	
	c1cncc(CCCN2CCc3c(n(CCCN4CCCCC4)c4ccccc34)C2)c1	>40	inhibition [1]: 26%
13	c1ccc2c3c([nH]c2c1)CN(CCc1cnccn1)CC3		
6	Cn1c(CN2CCc3c([nH]c4ccccc34)C2)nc2ccccc21		
	OC1(c2ccc(Cl)cc2)CCN(CCCn2c3c(c4ccccc42)CCN(CCc2ccccn2)C3)CC1	>40	
38	c1ccc(CCN2CCc3c([nH]c4ccccc34)C2)nc1		AB50 (Rattus norvegicus [24]): 23 mg/kg
	FC(F)(F)c1ccc(CN2CCN(CCCN3CCc4c([nH]c5ccccc45)C3)CC2)cc1	>40	
	c1ccc2c(CCCCN3CCc4c([nH]c5ccccc45)C3)ccnc2c1		AB50 (Rattus norvegicus [25]): 18 mg/kg
